In brackets after ≈: the same amount, converted by molar mass. One block for each compound: values may come before it.
Legend:
Format in all cases: functional
Escherichia coli [1] = experiment: Antibacterial activity against Escherichia coli assessed as bacterial growth inhibition
Pseudomonas aeruginosa [2] = experiment: Antibacterial activity against Pseudomonas aeruginosa assessed as bacterial growth inhibition
Staphylococcus aureus [3] = experiment: Antibacterial activity against Staphylococcus aureus ATCC 25923 assessed as bacterial growth inhibition incubated for 18 to 20 hrs by broth microdilution method; settings: time 18-20 hrs
Escherichia coli [4] = experiment: Antibacterial activity against Escherichia coli ATCC 25922 assessed as bacterial growth inhibition incubated for 18 to 20 hrs by broth microdilution method; settings: time 18-20 hrs
Klebsiella pneumoniae = experiment: Antibacterial activity against Klebsiella pneumoniae ATCC 29665 assessed as bacterial growth inhibition incubated for 18 to 20 hrs by broth microdilution method; settings: time 18-20 hrs
Acinetobacter baumannii = experiment: Antibacterial activity against Acinetobacter baumannii ATCC 19606 assessed as bacterial growth inhibition incubated for 18 to 20 hrs by broth microdilution method; settings: time 18-20 hrs
Pseudomonas aeruginosa [5] = experiment: Antibacterial activity against Pseudomonas aeruginosa ATCC 27853 assessed as bacterial growth inhibition incubated for 18 to 20 hrs by broth microdilution method; settings: time 18-20 hrs
Staphylococcus aureus [6] = experiment: Antibacterial activity against methicillin-resistant Staphylococcus aureus clinical isolate 1 assessed as bacterial growth inhibition incubated for 8 hrs by CLSI based broth microdilution method
Staphylococcus aureus [7] = experiment: Antibacterial activity against methicillin-resistant Staphylococcus aureus clinical isolate 2 assessed as bacterial growth inhibition incubated for 8 hrs by CLSI based broth microdilution method
Escherichia coli [8] = experiment: Antibacterial activity against Escherichia coli assessed as bacterial growth inhibition by serial dilution method
Pseudomonas aeruginosa [9] = experiment: Antibacterial activity against Pseudomonas aeruginosa assessed as bacterial growth inhibition by serial dilution method
Bacillus subtilis = experiment: Antibacterial activity against Bacillus subtilis assessed as bacterial growth inhibition by serial dilution method
Staphylococcus aureus [10] = experiment: Antibacterial activity against Staphylococcus aureus assessed as bacterial growth inhibition by serial dilution method
[11] = tested on: Staphylococcus epidermidis; experiment: Antibacterial activity against Staphylococcus epidermidis assessed as bacterial growth inhibition by serial dilution method
Staphylococcus aureus [12] = experiment: Antibacterial activity against Staphylococcus aureus ATCC 43300 assessed as bacterial growth inhibition incubated for 24 hrs by broth microdilution method
Staphylococcus aureus [13] = experiment: Antibacterial activity against Staphylococcus aureus ATCC 29213 assessed as bacterial growth inhibition incubated for 24 hrs by broth microdilution method
Staphylococcus aureus [14] = experiment: Antibacterial activity against Staphylococcus aureus clinical isolate AD3 assessed as bacterial growth inhibition incubated for 24 hrs by broth microdilution method
Staphylococcus aureus [15] = experiment: Antibacterial activity against Staphylococcus aureus clinical isolate 144 assessed as bacterial growth inhibition incubated for 24 hrs by broth microdilution method

SMILES: O=C(/C=C/c1ccc(OCc2cn(Cc3cccc(Br)c3)nn2)cc1)c1ccc([N+](=O)[O-])cc1
MIC (Escherichia coli [1]): 6.25 mg/L (≈ 12 µM)
MIC (Pseudomonas aeruginosa [2]): 6.25 mg/L (≈ 12 µM)

SMILES: O=C(Cn1cc(CN2CCN(c3cc4c(cc3F)c(=O)c(C(=O)O)cn4C3CC3)CC2)nn1)N[C@@H](Cc1ccccc1)C(=O)O
MIC (Staphylococcus aureus [3]): 0.25 mg/L (≈ 0.405 µM)
MIC (Escherichia coli [4]): 0.25 mg/L (≈ 0.405 µM)
MIC (Klebsiella pneumoniae): 0.25 mg/L (≈ 0.405 µM)
MIC (Acinetobacter baumannii): 0.25 mg/L (≈ 0.405 µM)
MIC (Pseudomonas aeruginosa [5]): 0.25 mg/L (≈ 0.405 µM)

SMILES: CC(C)C[C@@H](N)C(=O)N[C@H]1C(=O)N[C@@H](CC(N)=O)C(=O)N[C@H]2C(=O)N[C@H]3C(=O)N[C@H](C(=O)N[C@H](C(=O)O)c4cc(O)cc(O)c4-c4cc3ccc4O)[C@H](O)c3ccc(c(Cl)c3)Oc3cc2cc(c3O[C@@H]2O[C@H](CO)[C@@H](O)[C@H](O)[C@H]2O[C@H]2C[C@](C)(N)[C@H](O)[C@H](C)O2)Oc2ccc(cc2Cl)[C@H]1O
MIC (Staphylococcus aureus [6]): 1.56 mg/L (≈ 1.09 µM)
MIC (Staphylococcus aureus [7]): 1.56 mg/L (≈ 1.09 µM)

SMILES: CC(C)C[C@H](C(=O)N[C@@H]1Cc2ccc(c(Cl)c2)Oc2cc3cc(c2O[C@@H]2O[C@H](CO)[C@@H](O)[C@H](O)[C@H]2O[C@H]2C[C@](C)(NCCCCCCCc4ccccc4)[C@H](O)[C@H](C)O2)Oc2ccc(cc2Cl)[C@@H](O)[C@@H]2NC(=O)[C@H](NC(=O)[C@@H]3NC(=O)[C@H](CC(=O)O)NC1=O)c1ccc(O)c(c1)-c1c(O)cc(O)cc1[C@H](C(=O)O)NC2=O)n1cc(COCCOCCOCc2cn([C@H](CC(C)C)C(=O)N[C@@H]3Cc4ccc(c(Cl)c4)Oc4cc5cc(c4O[C@@H]4O[C@H](CO)[C@@H](O)[C@H](O)[C@H]4O[C@H]4C[C@](C)(NCCCCCCCc6ccccc6)[C@H](O)[C@H](C)O4)Oc4ccc(cc4Cl)[C@@H](O)[C@@H]4NC(=O)[C@H](NC(=O)[C@@H]5NC(=O)[C@H](CC(=O)O)NC3=O)c3ccc(O)c(c3)-c3c(O)cc(O)cc3[C@H](C(=O)O)NC4=O)nn2)nn1
MIC (Staphylococcus aureus [6]): 6.25 mg/L (≈ 1.83 µM)
MIC (Staphylococcus aureus [7]): 6.25 mg/L (≈ 1.83 µM)

SMILES: C#CCOCCOCCOCc1cn([C@H](CC(C)C)C(=O)N[C@@H]2Cc3ccc(c(Cl)c3)Oc3cc4cc(c3O[C@@H]3O[C@H](CO)[C@@H](O)[C@H](O)[C@H]3O[C@H]3C[C@](C)(NCCCCCCCc5ccccc5)[C@H](O)[C@H](C)O3)Oc3ccc(cc3Cl)[C@@H](O)[C@@H]3NC(=O)[C@H](NC(=O)[C@@H]4NC(=O)[C@H](CC(=O)O)NC2=O)c2ccc(O)c(c2)-c2c(O)cc(O)cc2[C@H](C(=O)O)NC3=O)nn1
MIC (Staphylococcus aureus [6]): 25 mg/L (≈ 13.9 µM)
MIC (Staphylococcus aureus [7]): 12.5 mg/L (≈ 6.93 µM)

SMILES: CC(C)C[C@H](C(=O)N[C@@H]1Cc2ccc(c(Cl)c2)Oc2cc3cc(c2O[C@@H]2O[C@H](CO)[C@@H](O)[C@H](O)[C@H]2O[C@H]2C[C@](C)(NCCCCCCCc4ccccc4)[C@H](O)[C@H](C)O2)Oc2ccc(cc2Cl)[C@@H](O)[C@@H]2NC(=O)[C@H](NC(=O)[C@@H]3NC(=O)[C@H](CC(=O)O)NC1=O)c1ccc(O)c(c1)-c1c(O)cc(O)cc1[C@H](C(=O)O)NC2=O)n1cc(COCCCCCCOCc2cn([C@H](CC(C)C)C(=O)N[C@@H]3Cc4ccc(c(Cl)c4)Oc4cc5cc(c4O[C@@H]4O[C@H](CO)[C@@H](O)[C@H](O)[C@H]4O[C@H]4C[C@](C)(NCCCCCCCc6ccccc6)[C@H](O)[C@H](C)O4)Oc4ccc(cc4Cl)[C@@H](O)[C@@H]4NC(=O)[C@H](NC(=O)[C@@H]5NC(=O)[C@H](CC(=O)O)NC3=O)c3ccc(O)c(c3)-c3c(O)cc(O)cc3[C@H](C(=O)O)NC4=O)nn2)nn1
MIC (Staphylococcus aureus [6]): 6.25 mg/L (≈ 1.82 µM)
MIC (Staphylococcus aureus [7]): 6.25 mg/L (≈ 1.82 µM)

SMILES: CC(C)C[C@H](C(=O)N[C@@H]1Cc2ccc(c(Cl)c2)Oc2cc3cc(c2O[C@@H]2O[C@H](CO)[C@@H](O)[C@H](O)[C@H]2O[C@H]2C[C@](C)(NCCCCCCCc4ccccc4)[C@H](O)[C@H](C)O2)Oc2ccc(cc2Cl)[C@@H](O)[C@@H]2NC(=O)[C@H](NC(=O)[C@@H]3NC(=O)[C@H](CC(=O)O)NC1=O)c1ccc(O)c(c1)-c1c(O)cc(O)cc1[C@H](C(=O)O)NC2=O)n1cc(COc2ccc(-c3ccc(OCc4cn([C@@H](CC(C)C)C(=O)N[C@H]5Cc6ccc(c(Cl)c6)Oc6cc7cc(c6O[C@H]6O[C@@H](CO)[C@H](O)[C@@H](O)[C@@H]6O[C@@H]6C[C@@](C)(NCCCCCCCc8ccccc8)[C@@H](O)[C@@H](C)O6)Oc6ccc(cc6Cl)[C@H](O)[C@H]6NC(=O)[C@@H](NC(=O)[C@H]7NC(=O)[C@@H](CC(=O)O)NC5=O)c5ccc(O)c(c5)-c5c(O)cc(O)cc5[C@@H](C(=O)O)NC6=O)nn4)cc3)cc2)nn1
MIC (Staphylococcus aureus [6]): 6.25 mg/L (≈ 1.78 µM)
MIC (Staphylococcus aureus [7]): 6.25 mg/L (≈ 1.78 µM)

SMILES: C=C[C@]1(C)C[C@@H](OC(=O)Cn2cc(CN3CCN(c4ccccc4C)CC3)nn2)[C@@]2(C)[C@@H]3C(=O)CC[C@@]3(CC[C@@H]2C)[C@@H](C)[C@@H]1O
MIC (Staphylococcus aureus [12]): 0.5 mg/L (≈ 0.809 µM)
MIC (Staphylococcus aureus [13]): 0.5 mg/L (≈ 0.809 µM)
MIC (Staphylococcus aureus [14]): 0.5 mg/L (≈ 0.809 µM)
MIC (Staphylococcus aureus [15]): 0.5 mg/L (≈ 0.809 µM)

Second part, the compound after the results:

MIC (Escherichia coli [1]): 6.25 mg/L (≈ 11.3 µM)
MIC (Pseudomonas aeruginosa [2]): 6.25 mg/L (≈ 11.3 µM)
SMILES: O=C(/C=C/c1ccc(OCc2cn(Cc3ccc(Br)cc3)nn2)cc1)c1ccc(Br)cc1

MIC (Escherichia coli [1]): 6.25 mg/L (≈ 11.3 µM)
MIC (Pseudomonas aeruginosa [2]): 6.25 mg/L (≈ 11.3 µM)
SMILES: O=C(/C=C/c1ccc(OCc2cn(Cc3ccccc3Br)nn2)cc1)c1ccc(Br)cc1

MIC (Escherichia coli [1]): 6.25 mg/L (≈ 12 µM)
MIC (Pseudomonas aeruginosa [2]): 6.25 mg/L (≈ 12 µM)
SMILES: O=C(/C=C/c1ccc(OCc2cn(Cc3ccc(Br)cc3)nn2)cc1)c1ccc([N+](=O)[O-])cc1

MIC (Escherichia coli [1]): 1.56 mg/L (≈ 2.99 µM)
MIC (Pseudomonas aeruginosa [2]): 1.56 mg/L (≈ 2.99 µM)
SMILES: Cc1cc(O)c(C(=O)/C=C/c2ccc(OCc3cn(Cc4ccc(Br)cc4)nn3)cc2)c(=O)o1

MIC (Escherichia coli [8]): 25 mg/L (≈ 60.2 µM)
MIC (Pseudomonas aeruginosa [9]): 25 mg/L (≈ 60.2 µM)
MIC (Bacillus subtilis): 25 mg/L (≈ 60.2 µM)
MIC (Staphylococcus aureus [10]): 25 mg/L (≈ 60.2 µM)
MIC [11]: 25 mg/L (≈ 60.2 µM)
SMILES: NC(=O)N/N=C/c1ccccc1OCc1cn(-c2ccc(Br)cc2)nn1

MIC (Escherichia coli [8]): 25 mg/L (≈ 68.2 µM)
MIC (Pseudomonas aeruginosa [9]): 25 mg/L (≈ 68.2 µM)
MIC (Bacillus subtilis): 25 mg/L (≈ 68.2 µM)
MIC (Staphylococcus aureus [10]): 25 mg/L (≈ 68.2 µM)
MIC [11]: 25 mg/L (≈ 68.2 µM)
SMILES: COc1ccc(-n2cc(COc3ccccc3/C=N/NC(N)=O)nn2)cc1

MIC (Escherichia coli [8]): 6.25 mg/L (≈ 14 µM)
MIC (Pseudomonas aeruginosa [9]): 6.25 mg/L (≈ 14 µM)
MIC (Bacillus subtilis): 6.25 mg/L (≈ 14 µM)
MIC (Staphylococcus aureus [10]): 6.25 mg/L (≈ 14 µM)
MIC [11]: 6.25 mg/L (≈ 14 µM)
SMILES: NC(=S)N/N=C/c1ccc(OCc2cn(Cc3ccc(Br)cc3)nn2)cc1
